Data as given in article PMC5810286, “Niemann-Pick C2 Proteins: A New Function for an Old Family” (Frontiers in Physiology, 2018).
Entries after “also recorded” stand apart in the source; their conditions may differ.

Molecular target: T1, HarmNPC2-1 (Helicoverpa armigera, UniProt A0A2W1BYA3)
Assay: Quenching of intrinsic tryptophan fluorescence
Format: binding
Details: Figure 2C
Method: (§1) Emission fluorescence spectra were recorded on a Horiba scientific Fluoromax-4 spectrofluorometer at room temperature in a right-angle configuration, with a 1 cm light path quartz cuvette and 5 nm slits for both excitation and emission. Proteins were dissolved in 50 mM Tris–HCl buffer, pH 7.4, while ligands were added as 1 mM methanol solutions.

T1 sequence (A0A2W1BYA3 entry or part of it): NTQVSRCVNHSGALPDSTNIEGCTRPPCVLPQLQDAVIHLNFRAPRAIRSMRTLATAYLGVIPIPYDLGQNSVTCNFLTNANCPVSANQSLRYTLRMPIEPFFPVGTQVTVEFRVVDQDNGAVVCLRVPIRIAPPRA

Row | Structure (SMILES) | quenching of intrinsic tryptophan fluorescence
1 | Cc1cc2c(C(C)C)c(O)c(O)c(C=O)c2c(O)c1-c1c(C)cc2c(C(C)C)c(O)c(O)c(C=O)c2c1O [gossypol] | quenching of intrinsic tryptophan fluorescence in a dose-dependent fashion
2 | O=c1c(O)c(-c2ccc(O)c(O)c2)oc2cc(O)cc(O)c12 [quercetin] | quenching of intrinsic tryptophan fluorescence in a dose-dependent fashion

Molecular target: T1, HarmNPC2-1
Assay: Competitive binding experiments (displacement of 1-NPN)
Details: competitive binding with 1-NPN, ligand 0.5–16 μM
Method: as §1
The probe was excited at 337 nm and emission spectra were recorded between 380 and 450 nm. […] Data obtained with 1-NPN were analyzed with Prism software.

Row | Structure (SMILES) | binding / affinity for HarmNPC2-1 (in words)
3 | COc1cc(CNC(=O)CCCC/C=C/C(C)C)ccc1O [capsaicin] | failed to bind
4 | O=C/C=C/c1ccccc1 [cinnamaldehyde] | failed to bind
5 | COc1cc(/C=C/C=O)ccc1O [coniferyl aldehyde] | moderate binding
6 | C=CCc1ccc(O)c(OC)c1 [eugenol] | failed to bind
7 | Cc1cc2c(C(C)C)c(O)c(O)c(C=O)c2c(O)c1-c1c(C)cc2c(C(C)C)c(O)c(O)c(C=O)c2c1O [gossypol] | best ligand; also recorded: the best
8 | COc1ccc([C@@H]2CC(=O)c3c(O)cc(O[C@@H]4O[C@H](CO[C@@H]5O[C@@H](C)[C@H](O)[C@@H](O)[C@H]5O)[C@@H](O)[C@H](O)[C@H]4O)cc3O2)cc1O [hesperidin] | the worst
9 | OCc1ccc2c(c1)OCO2 [piperonyl alcohol] | failed to bind
10 | COc1cc(C=O)ccc1O [vanillin] | failed to bind

Same assay, conditions: concentrations up to 16 μM; protein and 1-NPN both 2 μM

Row | Structure (SMILES) | displacing the fluorescent probe from the complex
11 | CC(C)=CCC[C@@H](C)CC=O (racemic) [citronellal] | ineffective
12 | CCCCCCCO [1-heptanol] | ineffective
13 | C=CC(O)CCCCC (centres unmarked) [1-octen-3-ol] | ineffective
14 | CCCC=CC=CC=O [2,4-octadienal] | ineffective
15 | CCCCC(C)O (centres unmarked) [2-hexanol] | ineffective
16 | O=Cc1ccccc1O [2-hydroxy benzaldehyde] | ineffective
17 | O=CCc1ccccc1 [2-phenylacetaldehyde] | ineffective
18 | CCCC(O)CC (centres unmarked) [3-hexanol] | ineffective
19 | COc1ccc(C=O)cc1 [4-methoxy benzaldehyde] | ineffective
20 | Cc1ccc(C=O)cc1 [4-methyl benzaldehyde] | ineffective
21 | CCCCCC/C=C\CCCCCCCC=O [(Z)-9-hexadecenal] | ineffective
22 | CCCC/C=C\CCCCCCCCCC=O [(Z)-11-hexadecenal] | ineffective
23 | CCCC/C=C\CCCCCCCCCCO [(Z)-11-hexadecenol] | ineffective
24 | CCCC/C=C\CCCCCCCCCCOC(C)=O [(Z)-11-hexadecenyl acetate] | ineffective
25 | CC/C=C\CCO [Z3-hexen-1-ol] | ineffective
26 | O=Cc1ccccc1 [benzaldehyde] | ineffective
27 | COc1cc(CNC(=O)CCCC/C=C/C(C)C)ccc1O [capsaicin] | ineffective

Row | Structure (SMILES) | displacing the fluorescent probe from the complex
28 | C=C(C)C1CC=C(C)C(=O)C1 (centres unmarked) [carvone] | ineffective
29 | O=C/C=C/c1ccccc1 [cinnamaldehyde] | ineffective
30 | COC(=O)CC(C)CCC=C(C)C (centres unmarked) [citronellic acid methyl ester] | ineffective
31 | CCCCCCCCCC=O [decanal] | ineffective
32 | CCCCCCCCCC(=O)O [decanoic acid] | ineffective
33 | C=CCc1ccc(O)c(OC)c1 [eugenol] | ineffective
34 | CC(C)=CCC/C(C)=C/CC/C(C)=C/CO [farnesol] | ineffective
35 | c1ccc2[nH]ccc2c1 [indole] | ineffective
36 | COC(=O)C=Cc1ccccc1 [methyl cinnamate] | ineffective
37 | CC/C=C\CC1C(=O)CCC1CC(=O)OC (centres unmarked) [methyl jasmonate] | ineffective
38 | CCCCCCCC=O [octanal] | ineffective
39 | CCCCCCCC(=O)O [octanoic acid] | ineffective
40 | OCc1ccc2c(c1)OCO2 [piperonyl alcohol] | ineffective
41 | CC1=C(C=O)C(C)(C)CC=C1 [safranal] | ineffective
42 | COc1cc(C=O)ccc1O [vanillin] | ineffective
43 | C[C@]12CC[C@@H]3c4ccc(O)cc4CC[C@H]3[C@@H]1CC[C@@H]2O [β-estradiol] | ineffective
44 | CC(=O)/C=C/C1=C(C)CCCC1(C)C [β-ionone] | ineffective
